Data as given in patent US20240043395A1, “COMPOUNDS AND COMPOSITIONS AS MODULATORS OF TLR SIGNALING” (Neuropore Therapies, Inc., priority 2020, published 2024).

Assays:
human TLR2 [1] = target: T1, human TLR2 (Homo sapiens (Human), UniProt O60603); assay: HEK-Blue hTLR2 antagonism assay (SEAP reporter), agonist Pam3CSK4; format: cell-based; conditions: HEK-Blue hTLR2 cells; Pam3CSK4 (TLR1/2 agonist) at approx. 3×EC50; 18 h; 8-point dilutions
Procedure: (§1) Synthetic diacylated lipoprotein (Pam2CSK4, TLR2/6 agonist) and synthetic triacylated lipoprotein (Pam3CSK4, TLR1/2 agonist) were obtained from InvivoGen and were dissolved in endotoxin-free water to a concentration 1 mg/mL, vortexed until complete solubilization, and stored in aliquots at −20° C. Prior to addition to cells, an aliquot of the dissolved ligand was vortexed shortly and then was diluted in medium to 25 ng/mL Pam2CSK4 or 1000 ng/mL Pam3CSK4.
(§2) Test compounds were solubilized fresh to 10-20 mM stocks in DMSO and sonicated for 5-10 minutes in a water bath sonicator. Serial dilutions were prepared in DMSO, and then diluted in medium. The final concentration of DMSO used in the assay was 1%.
(§3) HEK-Blue hTLR2 reporter cells (InvivoGen) are HEK-293 cells stably expressing both the human TLR2 gene and a secreted embryonic alkaline phosphatase (SEAP) reporter construct downstream of NFκB promotor sites. HEK-Blue hTLR2 reporters were cultured according to manufacturer's protocol using Dulbecco's Modified Eagle Medium (DMEM; Gibco) containing 1× GlutaMax (Gibco), 10% heat-inactivated Fetal Bovine Serum (Gibco), Pen-Strep (50 U/mL penicillin, 50 μg/mL streptomycin, Gibco), 100 μg/mL Normocin (InvivoGen), and the selective antibiotic, lx HEK-Blue Selection (InvivoGen). Quanti-Blue reagent (InvivoGen) for detection and quantification of secreted alkaline phosphatase was dissolved in 100 mL of endotoxin-free water, warmed to 37° C. for 30 minutes and then filtered using a 0.2 μm membrane.
(§4) On day 1, 50 μL of each test compound dilution in duplicates or a vehicle control was added to each well of a 96-well plate followed by addition of 150 μL of HEK-Blue hTLR2 cell suspension (1×10^5 cells/well) and incubated at 37° C./5% CO2 for 2 h. Next, 50 μL of an approximate 3×EC50 concentration of each agonist (Pam2CSK4 or Pam3CSK4) was added to the wells containing test compounds or the vehicle control. The plates were then incubated at 37° C./5% CO2 for 18 h. For each assay run, non-treated HEK-Blue hTLR2 cells were treated with serial dilutions of agonists to determine EC50 values for the respective run.
(§5) On day 2, secreted alkaline phosphatase (SEAP) activity was detected in cell culture supernatants. In brief, 20 μL was collected from each well and transferred to a 96-well plate. Next, 200 μL of Quanti-Blue detection reagent was added to each well. Plates were incubated at room temperature for 15 min and SEAP activity was assessed by spectrophotometer OD reading at 655 nm. […] IC50 values were calculated based on 8-point dilutions for each compound.

human TLR2 [2] = target: T1, human TLR2; assay: HEK-Blue hTLR2 antagonism assay (SEAP reporter), agonist Pam2CSK4; format: cell-based; conditions: HEK-Blue hTLR2 cells; Pam2CSK4 (TLR2/6 agonist) at approx. 3×EC50; 18 h; 8-point dilutions
Procedure: as §1, §2, §3, §4, §5

T1 sequence (O60603 21-784): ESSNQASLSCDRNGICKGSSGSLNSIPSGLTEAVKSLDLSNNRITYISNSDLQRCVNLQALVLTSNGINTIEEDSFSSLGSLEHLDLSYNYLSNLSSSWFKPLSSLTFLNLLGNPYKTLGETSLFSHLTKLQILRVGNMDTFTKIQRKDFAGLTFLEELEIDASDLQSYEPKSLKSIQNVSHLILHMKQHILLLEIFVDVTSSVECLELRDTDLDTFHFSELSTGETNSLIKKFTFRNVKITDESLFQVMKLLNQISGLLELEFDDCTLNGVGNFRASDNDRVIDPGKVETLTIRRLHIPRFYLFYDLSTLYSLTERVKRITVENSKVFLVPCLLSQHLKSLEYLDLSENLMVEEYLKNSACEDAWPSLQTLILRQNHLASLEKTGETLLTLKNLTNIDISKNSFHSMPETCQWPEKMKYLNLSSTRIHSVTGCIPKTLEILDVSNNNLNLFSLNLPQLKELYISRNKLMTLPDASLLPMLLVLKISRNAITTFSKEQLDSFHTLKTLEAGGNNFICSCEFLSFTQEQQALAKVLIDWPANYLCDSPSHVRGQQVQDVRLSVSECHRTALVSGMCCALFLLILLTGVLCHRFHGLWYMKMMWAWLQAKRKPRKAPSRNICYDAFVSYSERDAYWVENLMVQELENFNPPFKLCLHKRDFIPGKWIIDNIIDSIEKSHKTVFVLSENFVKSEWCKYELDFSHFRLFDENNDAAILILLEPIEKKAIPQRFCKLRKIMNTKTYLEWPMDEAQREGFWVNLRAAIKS

| Structure (SMILES) | IC50 (human TLR2 [1]) [µM] | IC50 (human TLR2 [2]) [µM] |
| --- | --- | --- |
| O=Cc1cc(C(=O)N2CCOC(c3ccc(N4CCCC4)cc3)C2)cc(F)c1O (racemic) [Compound 147, 3-fluoro-2-hydroxy-5-(2-(4-(pyrrolidin-1-yl)phenyl)morpholine-4-carbonyl)benzaldehyde] | 1.6 | 4.7 |
| O=Cc1cc(C(=O)N2CCOC(c3cccc(N4CCCC4)c3)C2)cc(F)c1O (racemic) [Compound 150, rac-3-fluoro-2-hydroxy-5-(2-(3-(pyrrolidin-1-yl)phenyl)morpholine-4-carbonyl)benzaldehyde] | 3.1 | 7.5 |
| C[C@H]1[C@H](c2ccc(N3CCCC3)cc2)OCCN1C(=O)c1cc(F)c(O)c(C=O)c1 (racemic) [Compound 151, rac-3-fluoro-2-hydroxy-5-((2S,3S)-3-methyl-2-(4-(pyrrolidin-1-yl)phenyl)morpholine-4-carbonyl)benzaldehyde] | 7 | 16.9 |
| COc1ccc(C2CN(C(=O)c3cc(F)c(O)c(C=O)c3)CCS2)cc1 (racemic) [Compound 152, rac-3-fluoro-2-hydroxy-5-(2-(4-methoxyphenyl)thiomorpholine-4-carbonyl)benzaldehyde] | 5.7 | 14.2 |
| O=Cc1cc(C(=O)N2CCCC2c2ccc(N3CCCC3)cc2)cc(F)c1O (racemic) [Compound 155, rac-3-fluoro-2-hydroxy-5-(2-(4-(pyrrolidin-1-yl)phenyl)pyrrolidine-1-carbonyl)benzaldehyde] | 9.62 | 15.7 |
| O=Cc1cc(C(=O)N2CCO[C@@H](c3ccc(N4CCCC4)cc3)C2)cc(F)c1O (single isomer, unassigned) [Compound 148] | 1.88 | 4.99 |
| O=Cc1cc(C(=O)N2CCO[C@H](c3ccc(N4CCCC4)cc3)C2)cc(F)c1O (single isomer, unassigned) [Compound 149] | 1.74 | 4.34 |
| O=Cc1cc(C(=O)N2CC[C@H](c3ccc(N4CCCC4)cc3)C2)cc(F)c1O (single isomer, unassigned) [Compound 156] | 3.2 | 3.7 |
| O=Cc1cc(C(=O)N2CC[C@@H](c3ccc(N4CCCC4)cc3)C2)cc(F)c1O (single isomer, unassigned) [Compound 157] | 2.2 | 3 |
| O=Cc1cc(C(=O)Nc2nnc(N3CCCCC3)s2)cc(F)c1O [Compound 1, 3-fluoro-5-formyl-4-hydroxy-N-(5-(piperidin-1-yl)-1,3,4-thiadiazol-2-yl)benzamide] | 21.8 | 45.8 |
| O=Cc1cc(C(=O)Nc2ncc(N3CCCCC3)s2)cc(F)c1O [Compound 3, 3-fluoro-5-formyl-4-hydroxy-N-(5-(piperidin-1-yl)thiazol-2-yl)benzamide] | 1.7 | 2.3 |
| O=Cc1cc(C(=O)Nc2ncc(N3CCN(C4CC4)CC3)s2)cc(F)c1O [Compound 5, N-(5-(4-cyclopropylpiperazin-1-yl)thiazol-2-yl)-3-fluoro-5-formyl-4-hydroxybenzamide] | 2.7 | 5.3 |
| O=Cc1cc(C(=O)Nc2nc(-c3ccccc3)cs2)cc(F)c1O [Compound 6, 3-fluoro-5-formyl-4-hydroxy-N-(4-phenylthiazol-2-yl)benzamide] | 3.3 | 5.1 |
| O=Cc1cc(C(=O)Nc2cnc(N3CCCC3)s2)cc(F)c1O [Compound 8, 3-fluoro-5-formyl-4-hydroxy-N-(2-(pyrrolidin-1-yl)thiazol-5-yl)benzamide] | 12.9 | 17.7 |
| O=Cc1cc(C(=O)Nc2ncc(-c3ccc(N4CCCC4)cc3)s2)cc(F)c1O [Compound 13, 3-fluoro-5-formyl-4-hydroxy-N-(5-(4-(pyrrolidin-1-yl)phenyl)thiazol-2-yl)benzamide] | 1 | 1.5 |
| O=Cc1cc(C(=O)c2ccc(N3CCCC3)cc2)cc(F)c1O [Compound 14, 3-fluoro-2-hydroxy-5-(4-(pyrrolidin-1-yl)benzoyl)benzaldehyde] | 18.7 | 18.2 |

| Structure (SMILES) | IC50 (human TLR2 [1]) [µM] | IC50 (human TLR2 [2]) [µM] |
| --- | --- | --- |
| O=Cc1cc(C(=O)Nc2coc(-c3ccccc3)n2)cc(F)c1O [Compound 15, 3-fluoro-5-formyl-4-hydroxy-N-(2-phenyloxazol-4-yl)benzamide] | 0.9 | 4.1 |
| O=Cc1cc(-c2scnc2-c2ccccc2)cc(F)c1O [Compound 18, 3-fluoro-2-hydroxy-5-(4-phenylthiazol-5-yl)benzaldehyde] | 20.3 | 22.2 |
| O=Cc1cc(C(=O)N2CCC(c3ccc(N4CCCC4)cc3)CC2)cc(F)c1O [Compound 34, 3-fluoro-2-hydroxy-5-(4-(4-(pyrrolidin-1-yl)phenyl)piperidine-1-carbonyl)benzaldehyde] | 0.4 | 0.9 |
| O=Cc1cc(C(=O)N2CCC(c3cccc(N4CCCC4)c3)CC2)cc(F)c1O [Compound 35, 3-fluoro-2-hydroxy-5-(4-(3-(pyrrolidin-1-yl)phenyl)piperidine-1-carbonyl)benzaldehyde] | 8 | 13.8 |
| O=Cc1cc(C(=O)N2CCC(c3ccc(N4CCCC4)nc3)CC2)cc(F)c1O [Compound 37, 3-fluoro-2-hydroxy-5-(4-(6-(pyrrolidin-1-yl)pyridin-3-yl)piperidine-1-carbonyl)benzaldehyde] | 4.8 | 6.2 |
| O=Cc1cc(C(=O)N2CCC(c3ccc(N4CCCC4)cc3)C2)cc(F)c1O (stereo not shown) [Compound 82, 3-fluoro-2-hydroxy-5-(3-(4-(pyrrolidin-1-yl)phenyl)pyrrolidine-1-carbonyl)benzaldehyde] | 3.5 | 8.4 |
| O=Cc1cc(C(=O)N2CC(c3ccc(N4CCCC4)cc3)C2)cc(F)c1O [Compound 84, 3-fluoro-2-hydroxy-5-(3-(4-(pyrrolidin-1-yl)phenyl)azetidine-1-carbonyl)benzaldehyde] | 3.8 | 6.2 |
| O=Cc1cc(C(=O)Nc2ccc(N3CCCC3)nn2)cc(F)c1O [Compound 92, 3-fluoro-5-formyl-4-hydroxy-N-(6-(pyrrolidin-1-yl)pyridazin-3-yl)benzamide] | 39 | 59 |
| O=Cc1cc(C(=O)N2CCCN(c3cccc(N4CCCC4)c3)CC2)cc(F)c1O [Compound 98, 3-fluoro-2-hydroxy-5-(4-(3-(pyrrolidin-1-yl)phenyl)-1,4-diazepane-1-carbonyl)benzaldehyde] | 18.1 | 15.1 |
| O=Cc1cc(C(=O)Nc2ncc(-c3ccc(C(F)(F)F)cc3)s2)cc(F)c1O [Compound 115, 3-fluoro-5-formyl-4-hydroxy-N-(5-(4-(trifluoromethyl)phenyl)thiazol-2-yl)benzamide] | 0.6 | 1 |
| O=Cc1cc(C(=O)Nc2nc(-c3ccccc3)ns2)cc(F)c1O [Compound 121, 3-fluoro-5-formyl-4-hydroxy-N-(3-phenyl-1,2,4-thiadiazol-5-yl)benzamide] | 7.9 | 15.9 |
| COc1cc(-c2cnn(-c3ccc(C(F)(F)F)cc3)c2)cc(C=O)c1O [Compound 128, 2-hydroxy-3-methoxy-5-(1-(4-(trifluoromethyl)phenyl)-1H-pyrazol-4-yl)benzaldehyde] | 0.8 | 0.7 |
| O=Cc1cc(-c2cnc(-c3ccc(N4CCCC4)nc3)s2)ncc1O [Compound 129, 5-hydroxy-2-(2-(6-(pyrrolidin-1-yl)pyridin-3-yl)thiazol-5-yl)isonicotinaldehyde] | 0.4 | 0.7 |
| O=Cc1cc(-c2nc(-c3ccc(N4CCCC4)nc3)ns2)cc(F)c1O [Compound 130, 3-fluoro-2-hydroxy-5-(3-(6-(pyrrolidin-1-yl)pyridin-3-yl)-1,2,4-thiadiazol-5-yl)benzaldehyde] | 0.8 | 1.3 |
| O=Cc1cc(C(=O)N2CCN(c3ccc(N4CCCC4)nc3)CC2)cc(F)c1O [Compound 140, 3-fluoro-2-hydroxy-5-(4-(6-(pyrrolidin-1-yl)pyridin-3-yl)piperazine-1-carbonyl)benzaldehyde] | 7.2 | 14 |
| O=Cc1cc(C(=O)NCCc2ccc(N3CCCC3)cc2)cc(F)c1O [Compound 143, 3-fluoro-5-formyl-4-hydroxy-N-(4-(pyrrolidin-1-yl)phenethyl)benzamide] | 12.3 | 17 |
